In PubChem BioAssay (NCI):
Values joined by “and” are separate entries in the source; they are usually repeats but may differ in a detail not shown here. Equal values may be shown once.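 Results reflect a 48-hour exposure of cells in 96-well plates to compound at five concentrations. Here, GI50 denotes the concentration required for 50% inhibition of growth. TGI is the concentration that stops growth completely.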

How the values were obtained:
Test in all cases: inhibition of tumour cell growth, NCI panel, 48 h
U251 CNS = tested on: U251 CNS
NCI-H522 lung = tested on: NCI-H522 lung
OVCAR-3 ovarian = tested on: OVCAR-3 ovarian
EKVX NSCLC = tested on: EKVX NSCLC
HL-60(TB) leukemia = tested on: HL-60(TB) leukemia
IGROV1 ovarian = tested on: IGROV1 ovarian
LOX IMVI melanoma = tested on: LOX IMVI melanoma
UACC-62 melanoma = tested on: UACC-62 melanoma
PC-3 prostate = tested on: PC-3 prostate
KM12 colon = tested on: KM12 colon

SMILES | GI50 (U251 CNS) | TGI (U251 CNS) | GI50 (NCI-H522 lung) | TGI (NCI-H522 lung) | GI50 (OVCAR-3 ovarian) | TGI (OVCAR-3 ovarian) | GI50 (EKVX NSCLC) | TGI (EKVX NSCLC) | GI50 (HL-60(TB) leukemia) | TGI (HL-60(TB) leukemia) | GI50 (IGROV1 ovarian) | TGI (IGROV1 ovarian) | GI50 (LOX IMVI melanoma) | TGI (LOX IMVI melanoma) | GI50 (UACC-62 melanoma) | TGI (UACC-62 melanoma) | GI50 (PC-3 prostate) | TGI (PC-3 prostate) | GI50 (KM12 colon) | TGI (KM12 colon)
CCCn1c(N)c(C(=O)N/N=C(/C)c2cc3cccc(OC)c3o2)sc1=S | 18.3 µM | 55.5 µM | 51.6 µM | > 100 µM | 30.1 µM | > 100 µM | 32.6 µM | > 100 µM | > 100 µM | > 100 µM | 48.2 µM | > 100 µM | 16.5 µM | > 100 µM | 34.6 µM | > 100 µM | 30.6 µM | > 100 µM | 22.2 µM | > 100 µM
O=C(c1c(F)ccc(NS(=O)(=O)N2CC[C@@H](F)C2)c1F)c1c[nH]c2ncc(-c3cnc(C4CC4)nc3)cc12 | 5.94 µM and 7.53 µM | > 10 µM and 39.3 µM | 3.05 µM and 4.34 µM | > 10 µM and 22.7 µM | > 8.35 µM and 6.04 µM | > 10 µM and 57.4 µM | > 10 µM and 9.15 µM | > 10 µM and 51.5 µM | 7.69 µM and 6.11 µM | > 10 µM and 41.3 µM | 2.35 µM and 2.14 µM | > 10 µM and 17 µM | 0.305 µM and 0.342 µM | > 10 µM and 17.2 µM | 0.0033 µM and < 0.01 µM | 0.13 µM and 0.123 µM | 7.03 µM and 6.82 µM | > 10 µM and 70 µM | 8.25 µM and 9.66 µM | > 10 µM and 33.6 µM
CCOc1ccc2nc(S/C(=C/C=C(C#N)C#N)c3ccc(C)cc3)sc2c1 | 29.4 µM | > 100 µM | 20.8 µM | 49.3 µM | 32.6 µM | > 100 µM | > 100 µM | > 100 µM | 4.55 µM | 20.4 µM | 54.5 µM | > 100 µM | 9.87 µM | 23.9 µM | 22 µM | 54.1 µM | 33.9 µM | > 100 µM | 35.9 µM | > 100 µM
Cc1[nH]c2ccccc2c1-c1cc(-c2cc(-c3c(C)[nH]c4ccccc34)on2)no1 | – | > 100 µM | – | > 100 µM | – | > 100 µM | – | > 100 µM | – | > 100 µM | – | > 100 µM | – | > 100 µM | – | > 100 µM | – | > 100 µM | – | > 100 µM
CCCNC(=S)/N=C/c1c(O)c2ccccc2[nH]c1=O | – | > 100 µM | – | > 100 µM | – | > 100 µM | – | > 100 µM | – | > 100 µM | – | > 100 µM | – | > 100 µM | – | > 100 µM | – | > 100 µM | – | > 100 µM
N=c1ccn2c(n1)OC1C(O)C(CO)OC12 (configuration not stated) | 2.11 µM | > 1000 µM | > 100 µM | > 1000 µM | 163 µM and 99.6 µM | > 1000 µM | > 100 µM | > 1000 µM | 0.763 µM | 69.7 µM and > 23.6 µM | 4.02 µM | > 1000 µM | 0.497 µM | 98.9 µM and > 100 µM | 1.55 µM | 212 µM and > 100 µM | > 100 µM | > 1000 µM | 147 µM and > 40.9 µM | > 806 µM
COc1ccc(-c2oc(=O)ccc2-c2cc(OC)c(OC)c(OC)c2)cc1F | 14.5 µM | > 100 µM | 3.04 µM | 23.6 µM | 5.84 µM | 71.9 µM | 46.4 µM | > 100 µM | 3.52 µM | 26.8 µM | – | – | 10.9 µM | > 100 µM | 10.2 µM | > 100 µM | 37.2 µM | > 100 µM | 4.52 µM | > 100 µM
CC(=O)OC12c3ccccc3-c3ccccc3C1C1C(=O)N(C)C(=O)C12Cl (configuration not stated) | – | > 10 µM | – | > 10 µM | – | > 10 µM | – | > 10 µM | – | > 10 µM | – | > 10 µM | – | > 10 µM | – | – | – | > 10 µM | – | > 10 µM
O=C(c1ccc(F)c(F)c1Nc1ccc(I)cc1F)N1CC(O)([C@@H]2CCCCN2)C1 | 0.492 µM and 0.958 µM | 17.9 µM and > 10 µM | 4.16 µM and 3.22 µM | 21.6 µM and > 10 µM | 9.85 µM and > 10 µM | 22.8 µM and > 10 µM | 0.308 µM | > 10 µM | < 0.0172 µM and 0.00962 µM | 2.33 µM and > 10 µM | < 0.0461 µM and 0.125 µM | 13.8 µM and > 10 µM | 0.0321 µM and 0.0191 µM | 2.15 µM and 1.7 µM | < 0.01 µM and 0.00339 µM | < 0.0158 µM and 0.0384 µM | 5.57 µM and > 9.27 µM | 18.8 µM and > 10 µM | < 0.0376 µM and 0.28 µM | 13.2 µM and > 10 µM
CC(CC(=O)O)C(C(=O)O)C(=O)O (configuration not stated) | – | > 100 µM | – | > 100 µM | – | > 100 µM | – | > 100 µM | – | > 100 µM | – | > 100 µM | – | > 100 µM | – | > 100 µM | – | > 100 µM | – | > 100 µM
COc1ccc(C(O)c2nccn2C)c(OC)c1 (configuration not stated) | – | > 100 µM | – | > 100 µM | – | > 100 µM | – | > 100 µM | – | > 100 µM | – | > 100 µM | – | – | – | > 100 µM | – | > 100 µM | – | > 100 µM
CCN(CC)CCOc1ccc(/C=C2\CC3C4CC=C5C[C@@H](O)CC[C@]5(C)C4CC[C@]3(C)C2=O)cc1OC (some centres not stated) | 2.41 µM | 6.37 µM | 3.57 µM | 14 µM | 1.71 µM | 9.04 µM | 9.56 µM | > 52.1 µM | 10.1 µM | 22.3 µM | 2.94 µM | 7.72 µM | – | – | 1.71 µM | 3.3 µM | 3.48 µM | > 39.1 µM | 3.34 µM | 13.8 µM
CCN(CC)c1nc(-c2ccc(Cl)cc2Cl)nc2ccccc12 | 18 µM | 37.2 µM | 29.2 µM | > 74.9 µM | 15.7 µM | 47.2 µM | 0.333 µM | 5.05 µM | 26.2 µM | > 100 µM | 25.9 µM | > 100 µM | 17.1 µM | 36 µM | 13.7 µM | 41.3 µM | 24.1 µM | > 63.3 µM | 20.2 µM | 59.8 µM
Nc1nc(N)c(N=Nc2ccc([As](=O)(O)O)cc2)c(=O)[nH]1 | – | > 100 µM | – | > 100 µM | – | > 100 µM | – | > 100 µM | – | > 100 µM | – | > 100 µM | – | > 100 µM | – | > 100 µM | – | > 100 µM | – | > 100 µM
O=c1[nH]c(=O)n(C2CC(O)C(CO)O2)cc1CO (configuration not stated) | 2.95 µM | > 100 µM | > 100 µM | > 100 µM | > 100 µM | > 100 µM | – | – | > 100 µM | > 100 µM | > 100 µM | > 100 µM | > 100 µM | > 100 µM | > 100 µM | > 100 µM | > 100 µM | > 100 µM | > 100 µM | > 100 µM
